Data from patent US12686690B2, “Macrocyclic urea orexin receptor agonists” (Merck Sharp & Dohme LLC, priority 2020, dated 2026).

Biological target: T1, hOX2R (Homo sapiens, UniProt O43614)
T1 construct: expressed in transfected cells; host or cells: CHO cells (G418 selection)
T1 sequence (O43614 1-444): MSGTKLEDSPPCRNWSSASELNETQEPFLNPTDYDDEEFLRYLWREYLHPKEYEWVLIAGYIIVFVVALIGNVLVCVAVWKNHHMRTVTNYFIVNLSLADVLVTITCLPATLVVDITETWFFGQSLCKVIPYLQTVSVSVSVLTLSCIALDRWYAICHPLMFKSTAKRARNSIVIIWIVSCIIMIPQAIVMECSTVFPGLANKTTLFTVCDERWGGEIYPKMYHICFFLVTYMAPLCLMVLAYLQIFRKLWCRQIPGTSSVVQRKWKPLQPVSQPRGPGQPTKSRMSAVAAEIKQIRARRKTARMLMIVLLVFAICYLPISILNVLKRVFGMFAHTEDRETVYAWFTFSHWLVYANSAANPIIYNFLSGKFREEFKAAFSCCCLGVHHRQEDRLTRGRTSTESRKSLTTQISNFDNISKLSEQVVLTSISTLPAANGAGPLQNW
Experiment: hOX2R IPone assay (orexin receptor agonism)
Type: cell-based
Details: IPone readout; for hOX2R_Ipone max %act: maximal activation; for EC50: orexin receptor agonist, read-out: hOX2R_IPone EC50

## CCN1Cc2cc(c(OC)cn2)-c2cn3ccnc3c(n2)OCCCC[C@H](CCC(F)(F)F)NC1=O [Example 45, (16R)-13-ethyl-8-methoxy-16-(3,3,3-trifluoropropyl)-12,13,15,16,17,18,19,20-octahydro-14H-6,22-(azeno)-11,7-(metheno)imidazo[2,1-c][1,4,10,13,15]oxatetra-azacycloicosin-14-one]
  hOX2R_Ipone max %act: 100.1%
  EC50: 14.1 nM

## CCN1C(=O)N[C@@H](CC(F)(F)F)CCCCCOc2nc(nn3ccnc23)-c2ccnc(c2)[C@H]1C [Example 101, (12R,16R)-13-ethyl-12-methyl-16-(2,2,2-trifluoroethyl)-12,13,16,17,18,19,20, 21-octahydro-6,23-(azeno)-11,7-(metheno)imidazo[2,1-c][1,4,5,10,13,15] oxapentaazacycloheni-cosin-14(15H)-one]
  hOX2R_Ipone max %act: 97.69%
  EC50: 248 nM

## CCN1C(=O)N[C@@H](CCC(F)(F)F)CCCCOc2nc(cn3ccnc23)-c2cc(ncc2OC)C1C (stereo in doubt) [Example 40, (12S,16R)-13-ethyl-8-methoxy-12-methyl-16-(3,3,3-trifluoropropyl)-12,13,15,16,17,18,19,20-octahydro-14H-6,22-(azeno)-11,7-(metheno)imidazo[2,1-c][1,4,10,13,15]oxatetra-azacycloicosin-14-one]
  hOX2R_Ipone max %act: 101.2%
  EC50: 1.2 nM

## CCN1C(=O)N[C@@H](CCC(F)(F)F)CCCCOc2nc(cn3ccnc23)-c2cccc(c2)[C@H]1C [Example 32, (3R,7R,E)-4-ethyl-3-methyl-7-(3,3,3-trifluoropropyl)-12-oxa-4,6-diaza-1(6,8)-imidazo[1,2-a]pyrazina-2(1,3)-benzenacyclododecaphan-5-one]
  hOX2R_Ipone max %act: 101%
  EC50: 2.8 nM

## CCN1C(=O)N[C@@H](CCC(C)(F)F)CCCCCOc2nc(cc3ncnn23)-c2cc(ncc2OC)[C@H]1C [Example 176]
  hOX2R_Ipone max %act: 99.6%
  EC50: 2.97 nM

## CCN1C(=O)NCCCCOc2nc(cn3ccnc23)-c2cc(ncc2OC)[C@H]1C [Example 178, (R,E)-4-ethyl-25-methoxy-3-methyl-11-oxa-4,6-diaza-1(6,8)-imidazo[1,2-a]pyrazina-2(4,2)-pyridinacycloun-decaphan-5-one]
  hOX2R_Ipone max %act: 88%
  EC50: 325 nM

## CCN1C(=O)NC(COCC(F)(F)F)CCCCCOc2nc(cn3ccnc23)-c2cc(ncc2OC)[C@H]1C (stereo partly drawn) [Example 188, (3R,E)-4-ethyl-25-methoxy-3-methyl-7-((2,2,2-trifluoroethoxy)methyl)-13-oxa-4,6-diaza-1(6,8)-imidazo [1,2-a]pyrazina-2(4,2)-pyridinacyclotridecaphan-5-one]
  hOX2R_Ipone max %act: 100.6%
  EC50: 0.74 nM

## CCN1C(=O)NC(CC2(C(F)(F)F)CC2)CCCCCOc2nc(cn3ccnc23)-c2cc(ncc2OC)[C@H]1C (single isomer, unassigned) [Example 66B]
  hOX2R_Ipone max %act: 101.1%
  EC50: 0.7 nM

## CCN1C(=O)NC(C2CCOCC2)CCCCCOc2nc(cn3ccnc23)-c2cc(ncc2OC)[C@H]1C (single isomer, unassigned) [Example 68B]
  hOX2R_Ipone max %act: 101.5%
  EC50: 1.5 nM

## CCN1CCCOc2nc(cn3ccnc23)-c2cccc(c2)[C@@H](C)N(CC)C(=O)NCC1 [Example 15, (12R)-13,18-diethyl-12-methyl-12,13,16, 17,18,19,20,21-octahydro-6,23-(azeno)-11,7-(metheno) imidazo[2,1-c][1,4,13,15,18]oxa-tetraazacyclo-henicosin-14(15H)-one]
  hOX2R_Ipone max %act: 96.2%
  EC50: 1180 nM

## CCN1C(=O)N[C@@H](CCC(F)(F)F)CCCCOc2nc(cn3ccnc23)-c2ccnc(c2)[C@@H]1C [Example 29A, (12S,16R)-13-ethyl-12-methyl-16-(3,3,3-tri-fluoropropyl)-12,13,15,16,17, 18,19,20-octahydro-14H-6,22-(azeno)-11,7-(metheno) imidazo[2,1-c][1,4,10,13,15] oxatetraazacyclo-icosin-14-one]
  hOX2R_Ipone max %act: 99.5%
  EC50: 42.9 nM

## CCN1C(=O)NC(CCC(F)(F)F)C(C)CCCOc2nc(cn3ccnc23)-c2cccc(c2)[C@H]1C (single isomer, unassigned) [Example 42A]
  hOX2R_Ipone max %act: 100.6%
  EC50: 6.6 nM

## CCN1C(=O)NC(CC2(C)CC2)CCCCCOc2nc(nn3ccnc23)-c2cc(ncc2OC)[C@H]1C (stereo partly drawn) [Example 206, (3R,E)-4-ethyl-25-methoxy-3-methyl-7-((1-methylcyclo-propyl)methyl)-13-oxa-4,6-diaza-1(2,4)-imidazo[2,1-f] [1,2,4]triazina-2(4,2)-pyridina-cyclotridecaphan-5-one]
  hOX2R_Ipone max %act: 107.8%
  EC50: 2.07 nM

## CCN1C(=O)N[C@@H](CCC(F)(F)F)CCCCCOc2nc(nn3ccnc23)-c2cc(cnc2OC)[C@H]1C [Example 47, (3R,7R,E)-4-ethyl-22-methoxy-3-methyl-7-(3,3,3-trifluoropropyl)-13-oxa-4,6-diaza-1(2,4)-imidazo[2,1-f][1,2,4]triazina-2(3,5)-pyridinacyclotridecaphan-5-one]
  hOX2R_Ipone max %act: 100.5%
  EC50: 4.3 nM

## CCN1C(=O)N[C@@H](CCC(F)(F)F)CCCCCOc2nc(cn3ccnc23)-c2ccnc(c2)C1(C)C [Example 143, (R,E)-4-ethyl-3,3-dimethyl-7-(3,3,3-trifluoropropyl)-13-oxa-4,6-diaza-1(6,8)-imidazo[1,2-a]pyrazina-2(4,2)-pyridinacyclotridecaphan-5-one]
  hOX2R_Ipone max %act: 89.95%
  EC50: 271 nM

## CCN1C(=O)N[C@@H](CCC(F)(F)F)CCCCCOc2nc(cn3ccnc23)-c2cc(ncn2)C1C (stereo partly drawn) [Example 112B, (16R)-13-ethyl-12-methyl-16-(3,3,3-trifluoropropyl)-12,13,16,17,18,19,20,21-octahydro-6,23-(azeno)-11,7-(metheno)imidazo[2,1-c][1,4,8,10,13,15]oxapentaazacyclohenicosin-14(15H)-one]
  hOX2R_Ipone max %act: 101.8%
  EC50: 9.3 nM

## CCN1C(=O)N[C@@H](C)C(F)(F)CCCCOc2nc(cn3ccnc23)-c2cc(ncc2OC)[C@H]1C [Example 141, (3R,7S,E)-4-ethyl-8,8-difluoro-25-methoxy-3,7-dimethyl-13-oxa-4,6-diaza-1(6,8)-imidazo[1,2-a]pyrazina-2(4,2)-pyridinacyclotridecaphan-5-one]
  hOX2R_Ipone max %act: 99.01%
  EC50: 8.35 nM

## CCN1C(=O)NC(c2nnnn2C)CCCCCOc2nc(cn3ccnc23)-c2cc(ncc2OC)[C@H]1C (stereo partly drawn) [Example 217, (3R,E)-4-ethyl-2^5-methoxy-3-methyl-7-(1-methyl-1H-tetrazol-5-yl)-13-oxa-4,6-diaza-1(6,8)-imidazo[1,2-a]pyrazina-2(4,2)-pyridinacyclotridecaphan-5-one]
  hOX2R_Ipone max %act: 100.1%
  EC50: 0.98 nM

## CCN1C(=O)NC(CC2(C(F)F)CC2)CCCCCOc2nc(cn3ccnc23)-c2cc(ncc2OC)[C@H]1C (single isomer, unassigned) [Example 70A]
  hOX2R_Ipone max %act: 99.1%
  EC50: 16.5 nM

## CCN1C(=O)NC(CC2(F)CC2)CCCCCOc2nc(cn3ccnc23)-c2cc(ncc2OC)[C@H]1C (stereo partly drawn) [Example 183, (3R,E)-4-ethyl-7-((1-fluorocyclopropyl)methyl)-25-methoxy-3-methyl-13-oxa-4,6-diaza-1(6,8)-imidazo[1,2-a]pyrazina-2(4,2)-pyridinacyclotridecaphan-5-one]
  hOX2R_Ipone max %act: 100.2%
  EC50: 1 nM

## CCN1C(=O)N[C@@H](CCC(F)(F)F)CCCCOc2nc(cn3cc(C)nc23)-c2cc(ncc2OC)C1C(F)(F)F (single isomer, unassigned) [Example 36B]
  hOX2R_Ipone max %act: 101.5%
  EC50: 8.9 nM

## CCN1C(=O)N[C@@H](CCC(F)(F)F)CCCCCc2cc(cn3ccnc23)-c2nc(ccc2OC)[C@H]1C [Example 138, (3R,7R,Z)-4-ethyl-23-methoxy-3-methyl-7-(3,3,3-trifluoropropyl)-4,6-diaza-1(6,8)-imidazo[1,2-a]pyridina-2(2,6)-pyridinacyclododecaphan-5-one]
  hOX2R_Ipone max %act: 100.1%
  EC50: 8.48 nM

## CCN1C(=O)NC2CN(CCCOc3nc(cn4ccnc34)-c3cc(ncc3OC)[C@H]1C)CC2C(F)(F)F (single isomer, unassigned) [Example 212]
  hOX2R_Ipone max %act: 99.48%
  EC50: 2.79 nM

## CCN1C(=O)N[C@@H](CCC(F)(F)F)CCCCCOc2nc(cn3ccnc23)-c2cc(cc(C)n2)[C@@H]1C [Example 118A, (12S,16R)-13-ethyl-9,12-dimethyl-16-(3,3,3-trifluoropropyl)-12,13,16,17,18,19,20,21-octahydro-6,23-(azeno)-11,7-(metheno)imidazo[2,1-c][1,4,8,13,15]oxatetraazacyclohenicosin-14(15H)-one]
  hOX2R_Ipone max %act: 99.08%
  EC50: 183 nM

## CCN1C(=O)N[C@@H](CCC(F)(F)F)CCCCCOc2nc(nn3ccnc23)-c2ccnc(c2)[C@H]1C [Example 102, (12R,16R)-13-ethyl-12-methyl-16-(3,3,3-trifluoropropyl)-12,13,16,17,18,19,20, 21-octahydro-6,23-(azeno)-11,7-(metheno)imidazo[2,1-c][1,4,5,10,13,15] oxapentaazacycloheni-cosin-14(15H)-one]
  hOX2R_Ipone max %act: 101.4%
  EC50: 14.9 nM
